# Reference: patent US9695155B2, “Herbicidal substituted pyrimidinyloxy benzene compounds” (E. I. DU PONT DE NEMOURS AND COMPANY, priority 2013, dated 2017)
# Experiments:
# corn = test: Test C postemergence; type: in vivo, Zea mays; details: for Plant response rating (0 to 100), Corn: 0 is no effect, 100 is complete control; for Corn plant response rating: 31 g ai/ha; for Corn plant response rating / Plant response rating, Corn: scale 0 to 100 (0 no effect, 100 complete control)
# In short: (§1)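 Plants were kept under greenhouse conditions for 13–15 days following spray. Pre-emergent application went to soil (loam–sand), post-emergent to foliage at 1–4 leaves. Evaluation: visual, percent control against untreated checks.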
# large (Lg) crabgrass [1] = test: Test C postemergence; type: in vivo, Digitaria sanguinalis; details: for Plant response rating (0 to 100), Crabgrass, Large: 0 is no effect, 100 is complete control; for Crabgrass, Large plant response rating: 31 g ai/ha; for Crabgrass, Large plant response rating / Plant response rating, Crabgrass, Large: scale 0 to 100 (0 no effect, 100 complete control)
# In short: as §1
# morningglory [2] = test: Test A postemergence; type: in vivo, Ipomoea spp.
# In short: (§2)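 Compounds in non-phytotoxic solvent with surfactant applied as soil spray preemergence, or postemergence to plants 2-10 cm at one- to two-leaf stage, in loam/sand. After approximately 10 days in greenhouse, injury rated visually versus untreated controls, 0 (no effect) to 100 (complete control).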
# Italian ryegrass = test: Test C postemergence; type: in vivo, Lolium multiflorum; details: for Plant response rating (0 to 100), Ryegrass, Italian: 0 is no effect, 100 is complete control; for Ryegrass, Italian plant response rating: 31 g ai/ha; for Ryegrass, Italian plant response rating / Plant response rating, Ryegrass, Italian: scale 0 to 100 (0 no effect, 100 complete control)
# In short: as §1
# blackgrass = test: Test C postemergence; type: in vivo, Alopecurus myosuroides; details: for Plant response rating (0 to 100), Blackgrass: 0 is no effect, 100 is complete control; for Blackgrass plant response rating: 31 g ai/ha; for Blackgrass plant response rating / Plant response rating, Blackgrass: scale 0 to 100 (0 no effect, 100 complete control)
# In short: as §1
# johnsongrass = test: Test C postemergence; type: in vivo, Sorghum halepense; details: for Plant response rating (0 to 100), Johnsongrass: 0 is no effect, 100 is complete control; for Johnsongrass plant response rating: 31 g ai/ha; for Johnsongrass plant response rating / Plant response rating, Johnsongrass: scale 0 to 100 (0 no effect, 100 complete control)
# In short: as §1
# yellow nutsedge = test: Test C postemergence; type: in vivo, Cyperus esculentus; details: for Plant response rating (0 to 100), Nutsedge, Yellow: 0 is no effect, 100 is complete control; for Nutsedge, Yellow plant response rating: 31 g ai/ha; for Nutsedge, Yellow plant response rating / Plant response rating, Nutsedge, Yellow: scale 0 to 100 (0 no effect, 100 complete control)
# In short: as §1
# wild oat = test: Test C postemergence; type: in vivo, Avena fatua; details: for Plant response rating (0 to 100), Oat, Wild: 0 is no effect, 100 is complete control; for Oat, Wild plant response rating: 31 g ai/ha; for Oat, Wild plant response rating / Plant response rating, Oat, Wild: scale 0 to 100 (0 no effect, 100 complete control)
# In short: as §1
# giant foxtail [3] = test: Test C postemergence; type: in vivo, Setaria faberii; details: for Plant response rating (0 to 100), Foxtail, Giant: 0 is no effect, 100 is complete control; for Foxtail, Giant plant response rating: 31 g ai/ha; for Foxtail, Giant plant response rating / Plant response rating, Foxtail, Giant: scale 0 to 100 (0 no effect, 100 complete control)
# In short: as §1
# velvetleaf = test: Test A preemergence; type: in vivo, Abutilon theophrasti
# In short: as §2
# morningglory [4] = test: Test A preemergence; type: in vivo, Ipomoea spp.
# In short: as §2
# giant foxtail [5] = test: Test A preemergence; type: in vivo, Setaria faberii
# In short: as §2
# waterhemp = test: Test C postemergence; type: in vivo, Amaranthus rudis; details: for Plant response rating (0 to 100), Waterhemp: 0 is no effect, 100 is complete control; for Waterhemp plant response rating: 31 g ai/ha; for Waterhemp plant response rating / Plant response rating, Waterhemp: scale 0 to 100 (0 no effect, 100 complete control)
# In short: as §1
# large (Lg) crabgrass [6] = test: Test A preemergence; type: in vivo, Digitaria sanguinalis
# In short: as §2
# chickweed = test: Test C postemergence; type: in vivo, Stellaria media; details: for Plant response rating (0 to 100), Chickweed: 0 is no effect, 100 is complete control; for Chickweed plant response rating: 31 g ai/ha; for Chickweed plant response rating / Plant response rating, Chickweed: scale 0 to 100 (0 no effect, 100 complete control)
# In short: as §1
# [7] = postemergence, visual rating, 13 to 15 days
# [8] = 125 g ai/ha, postemergence, visual rating
# [9] = Postemergence, 62 g ai/ha, 13 to 15 days
# [10] = 500 g ai/ha, 0 to 100 scale where 0 is no effect and 100 is complete control
# [11] = 1000 g ai/ha, 0 to 100 scale, 0 no effect, 100 complete control, approx. 10 days
structure (smiles),measurement,setting,value
Clc1cnc(Oc2cccc(Br)c2-n2cc(Cl)cn2)nc1 [Compound 221],"Plant response rating (0 to 100), Corn","corn; 16 g ai/ha, postemergence",0
same,Corn plant response rating,corn; [7],5
same,"Plant response rating, Corn",corn; [8],10
same,"Plant response rating, Corn",corn; [9],10
same,"Plant response rating (0 to 100), Crabgrass, Large","large (Lg) crabgrass [1]; 16 g ai/ha, postemergence",5
same,"Crabgrass, Large plant response rating",large (Lg) crabgrass [1]; [7],5
same,"Plant response rating, Crabgrass, Large",large (Lg) crabgrass [1]; [8],25
same,"Plant response rating, Crabgrass, Large",large (Lg) crabgrass [1]; [9],5
same,Morningglory plant response rating,"morningglory [2]; 125 g ai/ha, 0 to 100 scale where 0 is no effect and 100 is complete control",90
same,"Plant response rating, Morningglory",morningglory [2]; [10],100
same,"Plant response rating (0 to 100), Ryegrass, Italian","Italian ryegrass; 16 g ai/ha, postemergence",0
same,"Ryegrass, Italian plant response rating",Italian ryegrass; [7],0
same,"Plant response rating, Ryegrass, Italian",Italian ryegrass; [8],5
same,"Plant response rating, Ryegrass, Italian",Italian ryegrass; [9],5
same,"Plant response rating (0 to 100), Blackgrass","blackgrass; 16 g ai/ha, postemergence",0
same,Blackgrass plant response rating,blackgrass; [7],0
same,"Plant response rating, Blackgrass",blackgrass; [8],5
same,"Plant response rating, Blackgrass",blackgrass; [9],5
same,"Plant response rating (0 to 100), Johnsongrass","johnsongrass; 16 g ai/ha, postemergence",5
same,Johnsongrass plant response rating,johnsongrass; [7],5
same,"Plant response rating, Johnsongrass",johnsongrass; [8],20
same,"Plant response rating, Johnsongrass",johnsongrass; [9],5
same,"Plant response rating (0 to 100), Nutsedge, Yellow","yellow nutsedge; 16 g ai/ha, postemergence",0
same,"Nutsedge, Yellow plant response rating",yellow nutsedge; [7],0
same,"Plant response rating, Nutsedge, Yellow",yellow nutsedge; [8],10
same,"Plant response rating, Nutsedge, Yellow",yellow nutsedge; [9],5
same,"Plant response rating (0 to 100), Oat, Wild","wild oat; 16 g ai/ha, postemergence",5
same,"Oat, Wild plant response rating",wild oat; [7],5
same,"Plant response rating, Oat, Wild",wild oat; [8],30
same,"Plant response rating, Oat, Wild",wild oat; [9],10
same,"Plant response rating (0 to 100), Foxtail, Giant","giant foxtail [3]; 16 g ai/ha, postemergence",0
same,"Foxtail, Giant plant response rating",giant foxtail [3]; [7],5
same,"Plant response rating, Foxtail, Giant",giant foxtail [3]; [8],5
same,"Plant response rating, Foxtail, Giant",giant foxtail [3]; [9],5
same,Velvetleaf plant response rating (0 to 100 scale),velvetleaf; 125 g ai/ha,10
same,Velvetleaf plant response rating,velvetleaf; [10],70
same,Morningglory plant response rating (0 to 100 scale),morningglory [4]; 125 g ai/ha,0
same,Morningglory plant response rating,morningglory [4]; [10],10
same,"Foxtail, Giant plant response rating (0 to 100 scale)",giant foxtail [5]; 125 g ai/ha,100
same,"Foxtail, Giant plant response rating",giant foxtail [5]; [10],100
same,"Plant response rating (0 to 100), Waterhemp","waterhemp; 16 g ai/ha, postemergence",65
same,Waterhemp plant response rating,waterhemp; [7],70
same,"Plant response rating, Waterhemp",waterhemp; [8],80
same,"Plant response rating, Waterhemp",waterhemp; [9],80
same,"Crabgrass, Large plant response rating (0 to 100 scale)",large (Lg) crabgrass [6]; 125 g ai/ha,100
same,"Crabgrass, Large plant response rating",large (Lg) crabgrass [6]; [10],100
same,"Plant response rating (0 to 100), Chickweed","chickweed; 16 g ai/ha, postemergence",20
same,Chickweed plant response rating,chickweed; [7],60
same,"Plant response rating, Chickweed",chickweed; [8],50
same,"Plant response rating, Chickweed",chickweed; [9],60
Clc1cnc(Oc2ccccc2-n2cc(I)nn2)nc1 [Compound 222],"Plant response rating (0 to 100), Corn","corn; 8 g ai/ha, postemergence",0
same,"Plant response rating (0 to 100), Corn","corn; 16 g ai/ha, postemergence",5
same,Corn plant response rating,corn; [7],5
same,"Plant response rating, Corn",corn; [9],0
same,"Plant response rating (0 to 100), Crabgrass, Large","large (Lg) crabgrass [1]; 8 g ai/ha, postemergence",5
same,"Plant response rating (0 to 100), Crabgrass, Large","large (Lg) crabgrass [1]; 16 g ai/ha, postemergence",5
same,"Crabgrass, Large plant response rating",large (Lg) crabgrass [1]; [7],5
same,"Plant response rating, Crabgrass, Large",large (Lg) crabgrass [1]; [9],5
same,"Plant response rating, Morningglory","morningglory [2]; 1000 g ai/ha, 0 to 100 scale, 0 no effect, 100 complete control",100
same,"Plant response rating (0 to 100), Ryegrass, Italian","Italian ryegrass; 8 g ai/ha, postemergence",0
same,"Plant response rating (0 to 100), Ryegrass, Italian","Italian ryegrass; 16 g ai/ha, postemergence",0
same,"Ryegrass, Italian plant response rating",Italian ryegrass; [7],0
same,"Plant response rating, Ryegrass, Italian",Italian ryegrass; [9],0
same,"Plant response rating (0 to 100), Blackgrass","blackgrass; 8 g ai/ha, postemergence",0
same,"Plant response rating (0 to 100), Blackgrass","blackgrass; 16 g ai/ha, postemergence",5
same,Blackgrass plant response rating,blackgrass; [7],30
same,"Plant response rating, Blackgrass",blackgrass; [9],60
same,"Plant response rating (0 to 100), Johnsongrass","johnsongrass; 8 g ai/ha, postemergence",0
same,"Plant response rating (0 to 100), Johnsongrass","johnsongrass; 16 g ai/ha, postemergence",0
same,Johnsongrass plant response rating,johnsongrass; [7],10
same,"Plant response rating, Johnsongrass",johnsongrass; [9],10
same,"Plant response rating (0 to 100), Nutsedge, Yellow","yellow nutsedge; 8 g ai/ha, postemergence",0
same,"Plant response rating (0 to 100), Nutsedge, Yellow","yellow nutsedge; 16 g ai/ha, postemergence",5
same,"Nutsedge, Yellow plant response rating",yellow nutsedge; [7],5
same,"Plant response rating, Nutsedge, Yellow",yellow nutsedge; [9],5
same,"Plant response rating (0 to 100), Oat, Wild","wild oat; 8 g ai/ha, postemergence",5
same,"Plant response rating (0 to 100), Oat, Wild","wild oat; 16 g ai/ha, postemergence",10
same,"Oat, Wild plant response rating",wild oat; [7],10
same,"Plant response rating, Oat, Wild",wild oat; [9],30
same,"Plant response rating (0 to 100), Foxtail, Giant","giant foxtail [3]; 8 g ai/ha, postemergence",0
same,"Plant response rating (0 to 100), Foxtail, Giant","giant foxtail [3]; 16 g ai/ha, postemergence",5
same,"Foxtail, Giant plant response rating",giant foxtail [3]; [7],5
same,"Plant response rating, Foxtail, Giant",giant foxtail [3]; [9],5
same,Velvetleaf plant response rating,velvetleaf; [11],100
same,Morningglory plant response rating,morningglory [4]; [11],100
same,"Foxtail, Giant plant response rating",giant foxtail [5]; [11],100
same,"Plant response rating (0 to 100), Waterhemp","waterhemp; 8 g ai/ha, postemergence",60
same,"Plant response rating (0 to 100), Waterhemp","waterhemp; 16 g ai/ha, postemergence",70
same,Waterhemp plant response rating,waterhemp; [7],90
same,"Plant response rating, Waterhemp",waterhemp; [9],90
same,"Crabgrass, Large plant response rating",large (Lg) crabgrass [6]; [11],100
same,"Plant response rating (0 to 100), Chickweed","chickweed; 8 g ai/ha, postemergence",10
same,"Plant response rating (0 to 100), Chickweed","chickweed; 16 g ai/ha, postemergence",60
same,Chickweed plant response rating,chickweed; [7],85
same,"Plant response rating, Chickweed",chickweed; [9],100
